Earlier results on 1 compound are cited in patent US20100012894A1, “Tooth Whitening Compositions and Methods” (priority 2008, published 2010).

The conditions of this data set: at six months; concentrations 16%-18% carbamide peroxide (Brunton et al., 2004).

As for `NC(N)=O.OO` [carbamide peroxide], the rebound was 40 % of patients.
